One data set relates to HCT116 cells. The experiment in a line: Antiproliferative Assay. Type of data set: cell-based. The conditions noted are these: Homo sapiens, HCT-116, 72 hours, Alamar Blue, n=2, MSR 3.1. Here is the method:
The effects of compounds on cell proliferation can be determined using cells and cell proliferation methods well-known in the art (Robert C. Squatrito et al., Gynecological Oncology, 58, 101-105, (1995)). For example, HCT116 cells, which may be obtained from the American Type Culture Collection, may be seeded at ˜2000 cells/well in 96-well plates and allowed to attach overnight in a humidified CO2 incubator at 37° C. Following the 20-24 hour incubation, half-log serially diluted compounds are added and the plates are returned to the incubator. After an appropriate length of exposure (e.g., 72 hours), cell proliferation is estimated using well-known methods. In one method, 10 μL of a tetrazolium salt, such as Alamar Blue™ is added to the cell plates.

The subject of another data set is HeLa Cells. The experiment in a line: pHH3(S10), Mitotic Cells, and DNA Content Assays. The format is cell-based. Particulars: Homo sapiens, 23 hours exposure. As to the method: HeLa Cells are plated at 200 cells/well in 96 well […] BIOCOAT™ plates, and are incubated in MEM (Minimum Essential Medium) with 10% FBS (Fetal Bovine Serum) in 37° C., 5% CO2 for 24 hours. Cells are treated by adding compound (in 0.25% DMSO) to the medium, dosing at 10 points across the range 0.5 μM to 0.0098 μM. After 23 hours exposure to the compounds, cells are fixed, for example with the PREFER™ fixative for 30 min then are permeablized with 0.1% TRITON® X100 in phospate buffered saline (PBS) solution for 15 min. Cells are washed 3 times with PBS then digested with 50 μg/mL RNAse. Primary antibody, anti-phosphohistone H3 Serine 10, is added at 1:500 in PBS with 1% bovine serum albumin (BSA) to the cells over night at 4° C. After 3 PBS washes, cells are incubated with Alexa488 labeled secondary antibody for 1 hour at room temperature. Again they are washed 3 times with PBS, and then 15 μM propidium iodide is added for 30 min to stain nuclei. Fluorescence Plates are scanned with ACUMEN EXPLORER™ [Laser-scanning fluorescence microplate cytometer (comprising of 488 nm argon ion laser excitation and multiple photomultiplier tube detection), manufactured by TTP LABTECH LTD] to measure phosphohistone H3, DNA content and mitotic cells as measured by DNA condensation. Image analysis are based on cellular fluorescent signals for identifying cells in different subpopulations. pHH3(S10) positive cells are identified by mean intensity at 500-530 nm above the threshold. Total intensity at 655-705 nm from propidium iodide/DNA is used to identify individual cells (cells with DNA content from 2N to 4N) and subpopulations in cell cycle (2N cells, 4N cells). Peak intensity at 575-640 nm is used to identify DNA condensation that is used as the marker to identify mitotic cells among 4N cells. Assay outputs are percentage of each identified subpopulations, % pHH3, % 2N, % 4N, % mitotic and total cell number. The EC50 is determined by curve fitting to a four parameter logistic for each output using ACTIVITY BASE™.

The target in data set [1] is T1, Plk1-Flag-His6 tag fusion enzyme (Homo sapiens, UniProt P53350).
T1 construct: FLAG (C); His6 (C); made in house; host or cells: Sf9 insect cells (baculovirus, pFastBac), treated with okadaic acid before harvest; The substrate was made in E. coli BL21 (pGEX-2T)
T1 sequence (P53350 whole entry, the tested form may be a part): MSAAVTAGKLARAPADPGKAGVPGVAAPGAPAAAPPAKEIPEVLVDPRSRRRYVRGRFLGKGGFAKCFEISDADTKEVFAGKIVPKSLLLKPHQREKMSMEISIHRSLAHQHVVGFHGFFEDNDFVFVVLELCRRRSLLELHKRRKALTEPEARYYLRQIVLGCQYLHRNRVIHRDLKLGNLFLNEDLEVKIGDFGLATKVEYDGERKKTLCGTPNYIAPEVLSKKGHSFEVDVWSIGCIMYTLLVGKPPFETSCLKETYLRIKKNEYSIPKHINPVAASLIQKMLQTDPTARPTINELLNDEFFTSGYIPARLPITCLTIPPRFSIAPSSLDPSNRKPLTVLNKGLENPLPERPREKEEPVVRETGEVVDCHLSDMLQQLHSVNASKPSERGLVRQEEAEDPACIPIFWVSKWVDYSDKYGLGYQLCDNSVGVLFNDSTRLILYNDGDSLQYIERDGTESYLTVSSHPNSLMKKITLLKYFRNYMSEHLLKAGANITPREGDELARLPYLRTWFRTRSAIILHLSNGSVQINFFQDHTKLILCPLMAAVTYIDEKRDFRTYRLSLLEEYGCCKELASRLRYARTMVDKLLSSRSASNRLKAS
The experiment in a line: Plk1 Inhibition Assay. Type of data set: biochemical. Particulars: absolute IC50, 5.0 μM ATP, GST-Cdc25c (1-206) substrate, 60 min; MSR 3.6. From the text: Human Plk1 cDNA may be directly linked at one of its termini with a polynucleotide sequence expressing a His6 tag, such as the C-terminal FLAG-His6 tag, and inserted into an appropriate expression vector, such as a pFastBac™ vector (Invitrogen) and transfected into an appropriate system, such as baculovirus similar to what has been reported by Yue-Wei Qian, et al., Science, 282, 1701 (1998) for xPlkk1. If a viral expression system is used, then the virus (e.g., baculovirus bearing a Plk1-Flag-His6 tag polynucleotide construct) is infected into a culture of a suitable host cell, such as Sf9 cells. […]
Plk1 kinase reactions contain Plk1-Flag-His6 tag fusion enzyme (0.2 ng/μL) in a buffer containing 50 mM HEPES, pH 7.3, 1.0 mM dithiothreitol, 5.0 μM ATP, 10 mM MgCl2, 0.01% TRITON® X-100, 0.4 μCi ^33P-ATP, and […] GST-Cdc25c (1-206) peptide. […] Wells are dried before addition of 40 μL of MicroScint™20 (Packard) and then counted on a Wallac MICROBETA® Jet. The percentage inhibition values from the 10-point concentration response data are subsequently analyzed, for example, using ACTIVITY BASE™ software (IDBS), using a 4-parameter logistic equation. Absolute IC50 values are calculated from the resulting curve fit.

In another data set the test system is NCIH460. The conditions noted are these: NCIH460 murine xenograft; cited from earlier work.
A further data set concerns HCT116. The conditions noted are these: HCT116 murine xenograft; cited from earlier work.
For data set [2] the following is noted: in man; cited from earlier work.
A further data set has as its system A549. The conditions noted are these: A549 murine xenograft; cited from earlier work.
The conditions of data set [3]: in man, phase II clinical trials; cited from earlier work.

pEC50, pIC50: −log10 of the molar value. Where two headings read alike, the source gives them in different places.

As to `CC(N)c1ccc(F)cc1-c1cccc2cc(-c3nc(NCCn4ccnn4)ncc3F)sc12` (racemic) [Example 57, N-(2-(1H-1,2,3-Triazol-1-yl)ethyl)-4-(7-(2-(1-amino-ethyl)-5-fluorophenyl)-benzo[b]thiophen-2-yl)-5-fluoropyrimidin-2-amine], the negative logarithm of the IC50 (pIC50) – broadly, −log10 of the IC50, conventionally taken in molar units – was 6.92 in the data set with HCT116 cells and 7.96 in data set [1]. In addition, the pEC50 (in general, the negative decadic logarithm of the EC50, by convention in mol/L) in the data set with HeLa Cells (MSR 2.4, read-out: DNA content EC50) was 7.40; in the data set on HeLa Cells (MSR 2.5, read-out: mitotic EC50), 7.44; with HeLa Cells (MSR 2.6, read-out: pHH3(s10) EC50), 7.43.
As to `CC[C@@H]1C(=O)N(C)c2cnc(Nc3ccc(C(=O)NC4CCN(C)CC4)cc3OC)nc2N1C1CCCC1` [BI-2536], the “activity in preclinical model” value in the data set on NCIH460, in the data set on HCT116 and with A549 was “demonstrated activity” in each case. In addition, the “clearance (CL)” value in data set [2] is listed as > 1000 mL/min. For the same molecule, in data set [3], the dose-limiting toxicity entry was “dose limited by myelosupression”.

These data come from US8063035B2, “Triazolyl aminopyrimidine compounds” (Eli Lilly and Company, priority 2007, dated 2011).
